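All cell lines were grown in 96-well plates and treated with compound for 48 hours. TGI denotes the concentration required for complete inhibition of growth.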 Bounds are passed on as bounds.

Some test systems named below: RXF 393 renal; OVCAR-4 ovarian; SN12C renal; KM12 colon; SK-OV-3 ovarian; HOP-92 NSCLC; SNB-75 CNS; NCI-H460 lung; A498 renal; T-47D breast; SF-295 CNS; HCC-2998 colon.
Holding throughout (assay): NCI anticancer screen, dose series, 48 h

For the compound `C=C1C(=O)O[C@@H]2C[C@]3(C)CC[C@]4(C)[C@H](CC[C@@H]5[C@@]6(C)CCC(=O)C(C)(C)[C@@H]6CC[C@]54C)[C@H]3[C@H]12`, the TGI is 34.3 µM with RXF 393 renal; 40.1 µM with OVCAR-4 ovarian; 36.4 µM with SN12C renal; 42.8 µM with KM12 colon; 44.1 µM in the test with SK-OV-3 ovarian; 26.2 µM in the test on HOP-92 NSCLC. In addition, the TGI in the test with SNB-75 CNS turned out to be 43.9 µM; with NCI-H460 lung it was 35 µM; in the test with A498 renal, 35.3 µM; with T-47D breast, 34 µM; in the test with SF-295 CNS, 33.6 µM; in the test with HCC-2998 colon, 33.7 µM.
Consider `CCOC(=O)CNc1nc(=O)c2c(=O)oc(Cl)cc2o1`, for which the TGI with OVCAR-4 ovarian was 34.3 µM; with SN12C renal, 53.1 µM; in the test on KM12 colon, 55.3 µM; in the test on SK-OV-3 ovarian, above 100 µM; in the test on HOP-92 NSCLC, 19.5 µM; in the test on SNB-75 CNS, 24.7 µM. For the same compound, the TGI in the test with NCI-H460 lung is 36.2 µM; in the test on A498 renal it was 38 µM; in the test on T-47D breast, 61.7 µM; with SF-295 CNS, above 100 µM; in the test on HCC-2998 colon, 29 µM.
Take `CC(=O)OC1COC(Nc2nc(NCc3ccccc3)n(C)c(=O)c2N=O)C(OC(C)=O)C1OC(C)=O` (stereo not given): the TGI in the test on RXF 393 renal, with OVCAR-4 ovarian, with SN12C renal, in the test with KM12 colon, in the test with SK-OV-3 ovarian and in the test with SNB-75 CNS was above 10 µM throughout. Besides, the TGI in the test with NCI-H460 lung, in the test with A498 renal, in the test on T-47D breast, with SF-295 CNS and with HCC-2998 colon was above 10 µM each time.
For the compound `CC(=O)N=C1N(/C=C2\C(=O)Oc3ccccc3C2=O)C(=O)/C(=C/c2ccc(NC(C)=O)cc2)N1C`, the TGI with RXF 393 renal, in the test on OVCAR-4 ovarian, in the test with SN12C renal, in the test on KM12 colon, with SK-OV-3 ovarian and with SNB-75 CNS was above 100 µM in each case. For the same compound, the TGI in the test on NCI-H460 lung, with A498 renal, in the test with T-47D breast, in the test with SF-295 CNS and with HCC-2998 colon was above 100 µM each time.
For the compound `C=C1C(=O)O[C@H]2[C@@H](O)[C@H](C)CCC[C@]3(C)O[C@H]3CC[C@@]3(C)O[C@@H]3C[C@@H]12`, the TGI worked out at 7.13 µM in the test with RXF 393 renal; 9.85 µM in the test with OVCAR-4 ovarian; 13.2 µM with SN12C renal; 15.3 µM in the test on KM12 colon; 25 µM in the test on SK-OV-3 ovarian; 15.2 µM in the test with SNB-75 CNS. Besides, the TGI in the test on A498 renal was 14.4 µM; in the test on T-47D breast, 19.9 µM; with SF-295 CNS it was 15.6 µM; in the test on HCC-2998 colon it was 10.9 µM.
As to `O=C(Cc1ccccc1)Nn1c(-c2ccccc2)nc2ccccc2c1=O`, the TGI in the test with RXF 393 renal, in the test on OVCAR-4 ovarian, with SN12C renal, with KM12 colon, in the test on SK-OV-3 ovarian and in the test on HOP-92 NSCLC was above 100 µM in each case. Further, the TGI in the test on SNB-75 CNS, in the test with NCI-H460 lung, in the test on A498 renal, with T-47D breast, with SF-295 CNS and in the test on HCC-2998 colon was above 100 µM in each case.
Take `CCOC(=O)C(NC(=O)c1ccccc1)(N1CCOCC1)C(F)(F)F` (stereo not given): the TGI with RXF 393 renal, in the test with OVCAR-4 ovarian, in the test with SN12C renal, in the test with KM12 colon, in the test on SK-OV-3 ovarian and with HOP-92 NSCLC was above 100 µM throughout. Further, the TGI in the test on SNB-75 CNS, in the test on T-47D breast, in the test with SF-295 CNS and in the test with HCC-2998 colon was above 100 µM throughout.
With `O=C(NCc1cccc2ccccc12)N/N=C\c1ccc(Cl)cc1`, the TGI in the test with RXF 393 renal, in the test on OVCAR-4 ovarian, in the test on SN12C renal, with KM12 colon, in the test with HOP-92 NSCLC and in the test with SNB-75 CNS was above 100 µM throughout. Also, the TGI with NCI-H460 lung, in the test with T-47D breast, in the test on SF-295 CNS and with HCC-2998 colon was above 100 µM throughout.
In the case of `O=C(O)Cc1ccc2[nH]c(O)c(C3=Nc4ccccc4C3=O)c2c1`, the TGI was 58.5 µM with RXF 393 renal; above 100 µM in the test with OVCAR-4 ovarian; above 100 µM in the test on SN12C renal; above 100 µM in the test on KM12 colon; 94.8 µM in the test on SK-OV-3 ovarian; above 100 µM with SNB-75 CNS. Also, the TGI was above 100 µM with NCI-H460 lung; 98.7 µM with A498 renal; above 100 µM in the test with T-47D breast; above 100 µM in the test with SF-295 CNS; above 100 µM with HCC-2998 colon.
On to `O=C1c2cc(Cl)ccc2NC(=NCCCl)C2CSCN12` (stereo not given), for which the TGI with RXF 393 renal, in the test on OVCAR-4 ovarian, in the test with SN12C renal, in the test on KM12 colon, with SK-OV-3 ovarian and with NCI-H460 lung was above 100 µM each time. In addition, the TGI with A498 renal, in the test on T-47D breast, with SF-295 CNS and with HCC-2998 colon was above 100 µM in each case.
On to `COc1cc2cc(C(=O)N3CC(CCl)c4c3cc(N)c3ccccc43)[nH]c2c(OC)c1OC` (stereo not given), for which the TGI in the test on RXF 393 renal is below 0.01 µM; with OVCAR-4 ovarian, below 0.045 µM; with SN12C renal, below 0.01 µM; in the test on KM12 colon it was 0.0207 µM; in the test with SK-OV-3 ovarian, 0.248 µM; with HOP-92 NSCLC it was 0.275 µM. Also, the TGI was below 0.01 µM with SNB-75 CNS, below 0.01 µM with A498 renal, above 100 µM in the test on T-47D breast and below 0.01 µM with HCC-2998 colon.
Take `COc1ccc(N2C=Nn3c(nc4sc5c(c4c3=O)CCCC5)C2)cc1`: the TGI was 57.1 µM in the test with RXF 393 renal; above 100 µM with OVCAR-4 ovarian; above 100 µM in the test on SN12C renal; above 100 µM with KM12 colon; above 100 µM in the test with SK-OV-3 ovarian; 41.8 µM with HOP-92 NSCLC. In addition, the TGI was above 100 µM in the test on SNB-75 CNS; above 100 µM with NCI-H460 lung; 41.8 µM with A498 renal; above 100 µM in the test on T-47D breast; 68 µM in the test on SF-295 CNS; above 100 µM in the test on HCC-2998 colon.

Values taken from PubChem BioAssay (NCI).
